Earlier results in patent US20070032466A1, “Drug containing chymase inhibitor as the active ingredient” (TEIJIN PHARMA LIMITED, priority 2003, published 2007).

How the values were obtained:
[1] = test system: hamster model of myocardial infarction; conditions: administrated alone
[2] = test system: canine model of myocardial infarction; conditions: oral administration
mouse allergy model = conditions: oral administration
new onset of diabetes = conditions: large scale clinical tests (CARPPP, HOPE, LIFE studies)

SMILES	suppression of new onset of diabetes (new onset of diabetes)	other results
CCOc1ccccc1CC1C(=O)N(C(=O)NC(c2ccc(C)cc2)c2ccc(C)cc2)C1C(=O)c1ccc(C(=O)O)cc1 (stereo not drawn) [4-[1-{[bis(4-methylphenyl)methyl]carbamoyl}-3-(2-ethoxybenzyl)-4-oxoazetizin-2-yloyl]benzoic acid]	–	effect on a hamster model of myocardial infarction [1]: has an effect
O=CNc1cnc(-c2ccccc2)n(CC(=O)NC(Cc2ccccc2)C(=O)C(=O)CCCOc2ccccn2)c1=O (stereo not drawn) [III-I]	–	effectiveness in a canine model of myocardial infarction [2]: effective
COC(=O)c1ccc2oc(C(=O)C(Cc3ccccc3)NC(=O)Cn3c(-c4ccccc4OC)ncc(N)c3=O)nc2c1 (stereo not drawn) [IV-I]	–	activity as a chymase inhibitor in a mouse allergy model (mouse allergy model): exhibit activity as a chymase inhibitor
C[C@H](CS)C(=O)N1CCC[C@H]1C(=O)O [captopril]	suppress new onset of diabetes	–
CCCCc1nc(Cl)c(CO)n1Cc1ccc(-c2ccccc2-c2nn[nH]n2)cc1 [losartan]	suppress new onset of diabetes	–
CCOC(=O)[C@H](CCc1ccccc1)N[C@@H](C)C(=O)N1[C@H](C(=O)O)C[C@@H]2CCC[C@@H]21 [ramipril]	suppress new onset of diabetes	–
